Source: patent US20140256663A1, “Amphotericin Analogous Compounds and Pharmaceutical Compositions Containing Them” (CENTRO DE INVESTIGACION Y DE ESTUDIOS AVANZADOS DEL …, priority 2010, published 2014)

Key:
human erythrocytes = test: Hemolytic assay on human erythrocytes; assay type: cell-based; conditions: 1 hour
Procedure: The hemotoxicity of the polyene macrolide derivative of the present invention was determined by measuring the toxicity to human erythrocytes (values HE50) using a method established by Cybulska, et al. (Cybulska, B., Borowski, E. and Gary-Bobo, M. Relationship between ionophoric and hemolytic activities of perimycin A and vacidin A, two polyene macrolide antifungal antibiotics. Biochem Pharmacol. 1989; 38(11): 1755-1762). For determining the haematoxicity 2 mL blood were obtained and placed in a tube with EDTA. The number of erythrocytes was counted in a Neubauer chamber, and 1×10^7 cells/mL were placed in test tubes. The erythrocytes were resuspended in 450 μL of KCl 150 mM+Tris 3 mM buffer. The erythrocytes were treated with concentrations of 0.01, 0.1, 1, 10 y 100 μM and incubated in a water bath for 1 hour. They were then centrifuged at 1500 rpm for 15 seconds; 150 μL were taken from the supernatant and placed in 96-well plates; the optical density of each group was measured using a plate reader at a wavelength of 550 nm. We included one tube with the drug solvent (DMSO 1%) as internal control. We also included one tube only with erythrocytes and 500 μl of buffer KCl 150 mM+Tris 3 mM, which we consider as a negative control group and a tube with 500 μl of red cells and 35 mM NaCl (positive control).

Candida kruzei = test: Antifungal activity in vitro by flow cytometry, Candida kruzei; assay type: cell-based; conditions: 24 h at 37° C., read-out: CF50 Candida kruzei
Procedure: (§1) The antifungal activity of the polyene macrolide derivate of the present invention was determined by flow cytometry method earlier described (Pinto et al., J. Medical Microbiology, 2009; 58, 1454-1462; Pina-Vaz and Rodriguez, Methods Mol. Biol. 2010; 638:281-289). For the test two strains of Candida albicans (ATCC 10231 and 752) and Candida kruzei were used. A cellular suspension of 1×10^6 UFC/mL was used, which has sown in 96-well plates. […] As controls were used: untreated yeasts (control of living cells), yeasts exposed to UV radiation (arrest, inhibition of proliferation), and yeasts exposed at temperature of 100° C. (dead yeasts). Cells were collected by centrifugation at 10,000×g for 10 min, they were washed once in phosphate buffer. […] of propidium iodide 0.1 mg/mL were added to the cell suspension. It was incubated during 30 minutes at room temperature and protected from light. Finally, the samples were analyzed by flow cytometry (Becton-Dickinson Facsc Calibur, laser argon 480 nm). The intrinsic parameters and fluorescence in the FL2 channel (yellow/orange fluorescence) for FUN and channel FL3 (red fluorescence, filter 630 nm) for propidium iodide were acquired and registered on a logarithmic scale for a minimum of 7500 events per sample. For data analysis, the quadrants were adjusted in a plot of data lines of fluorescence intensity of samples. […] These quadrants were used to quantify the percentile of cells showing altered fluorescence compared to drug-free controls.

[1] = tested on: human renal cells 293Q (ATCC CLR-1573); test: MTT cytotoxicity on human renal cells 293Q; conditions: human renal cells 293Q, 24 h
Procedure: For cytotoxicity studies human kidney cells (ATCC No. CRL-1573) were used. The cells were cultured with Minimum Essential Medium (MEM) (GIBCO BRL), supplemented with 10% fetal bovine serum (FBS) (GIBCO BRL), 2 mM 1-glutamine (GIBCO BRL), 1.5 gL Na2HCO3 (Sigma Chemical Co), 0.1 mM nonessential amino acids (Sigma Chemical Co), and 1 mM sodium pyruvate (In vitro, S.A.). The technique of bromide of 3(4,5-dimethylthiazol-2-yl)-2,5-diphenyl tetrazolium (MTT) (Sigma Chemical Co) was applied; a technique which is based on the conversion of dye to an insoluble precipitate called formazan. This test is used as an indicator of mitochondrial function in living cells that measures the metabolic capacity in cells and serves as an indicator of cytotoxicity. […] (Mosman […], Immunol Methods, 65: 55-63). The cytoxicity test consisted of planting 10,000 cells per well in 96-well plates (Corning Incorporated Costar) in MEM and incubate them (Nuaire us autoflow CO2 water-jacketed incubator) during 24 h at 37° C. and 5% CO2. […] After incubation, cells were treated and incubated anew for 24 h. After this time the medium was aspirated carefully and replaced with 200 μL of fresh medium, and 50 μL of MTT was added for a total volume of 250 μl. They were then incubated for 4 hours in the above conditions. After that time the medium with MTT was carefully removed and 200 μL of DMSO and 25 μL of Sorensen buffer (0.1 M glycine+0.1 M NaCl at pH 10.5) were added to each well. The plate was then mixed until the formazan crystals dissolved, and it was finally read in a plate reader (Microplate Limaning System Ultramark, Biorad) at a wavelength of 550 nm.
For the tests, we used human renal ephythelial cells (293Q) (ATCC Catalog No. CRL-1573). The cells were cultured with Minimum Essential Medium (MEM) (GIBCO BRL) supplemented with 10% fetal bovine serum (FBS) (GIBCO BRL), 2 mM L-glutamine (GIBCO BRL), 1.5 g/L Na2HCO3 (Sigma Chemical Co), 0.1 mM nonessential amino acids (Sigma Chemical Co), and 1 mM sodium pyruvate (In vitro, S.A.). For cytoxicity tests, we applied the technique of bromide 3(4,5-dimethylthiazol-2-yl)-2,5-diphenyl tetrazolium (MTT) (Sigma Chemical Co), which is based on the conversion of the dye to an insoluble precipitate called formazan. This test is used as an indicator of mitochondrial function in living cells which measures the metabolic capacity in cells and serves as an indicator of cytotoxicity. (Wang, H. Z., Chang, C. H., Lin, C. P., Tsai, M. C). Using MTT viability assay to test the cytotoxicity of antibiotics and steroid to cultured porcine corneal endothelial cells. J. Ocul. Pharmacol. Ther. 1996; 12: 35-43). For the essay 10,000 cells were seeded per well in 96-well plates (Corning Incorporated Costar) in the medium already indicated and incubated for 24 h at 37° C. and 5% CO2. […] After incubation, cells were treated and incubated again for 24 h. The medium was carefully aspirated and replaced with 200 μl fresh medium, adding 50 μl MTT solution for a total volume of 250 μl. They were then incubated for 4 hours in the above conditions. The medium was carefully removed with MTT and 200 μl DMSO and 25 μl Sorense buffer (0.1 M glycine+0.1 M NaCl at pH 10.5) was added to each well. Then the plate was mixed until the formazan crystals dissolved; it was finally read in a reader plate (Microplate Limaning System Ultramark, Biorad) at a wavelength of 550 nm.

[2] = tested on: Candida albicans ATCC 10231; test: Antifungal activity in vitro by flow cytometry, Candida albicans ATCC 10231; assay type: cell-based; conditions: ATCC10231, 24 h at 37° C., read-out: CF50 Candida albicans ATCC 10231
Procedure: as §1

[3] = Unit channel studies in chicken egg lecithin bilayers with cholesterol; conditions: 200 μM compound; 30 mol % cholesterol, 27° C.
Procedure: The activity is determined by the presence of the different channels formed by polyenes in the lipid bilayer (Cotero, et al., supra; Venegas, et al., supra). […] These values were determined by the technique of unit channel delineated above.
Unit channel studies were performed according to procedures described earlier (Cotero, et al., supra, Venegas, et al., supra). Required liposomal suspensions were prepared using lecithin with cholesterol or ergosterol. These suspensions were placed in an ultrasonic bath for 15 minutes to produce unilamellar vesicles. Subsequently, the suspension was placed in a 100 μl eppendorf and a lipid bilayer was formed on the tip of a micro-electrode. The unit channels of amphotericin and of the invented compounds were incorporated to this bilayer. The unit channel current of the various compounds was recorded with an electrometer, and then these records were analyzed by determining the activity of the compounds and the characteristics of the channels formed.
The activity is determined by the presence of the various channels formed by polyenes in the lipid bilayer (Cotero, et al., supra, Venegas, et al., supra). […] This conductance is the effect of all the channels present and was determined by the unit channel technique earlier described.

[4] = tested on: Candida albicans ATCC 752; test: Antifungal activity in vitro by flow cytometry, Candida albicans ATCC 752; assay type: cell-based; conditions: ATCC752, 24 h at 37° C., read-out: CF50 Candida albicans ATCC 752
Procedure: as §1

| SMILES | HE50 (Hemolysis 50) (human erythrocytes) [µM] | IC50 (Candida kruzei) [µM] | DT50 CitE50 [1] [µM] | IC50 [2] [µM] | Opening probability, channel type I [3] [%] | Opening probability, channel type II [3] [%] | Opening probability, channel type III [3] [%] | Opening probability, channel type IV [3] [%] | Opening probability, channel type V [3] [%] | Opening probability, channel type VI [3] | IC50 [4] [µM] |
| --- | --- | --- | --- | --- | --- | --- | --- | --- | --- | --- | --- |
| CC1OC(O[C@H]2/C=C/C=C/C=C/C=C/C=C/C=C/C=C/C(C)[C@@H](O)C(C)C(C)OC(=O)C[C@H](O)C[C@H](O)CC[C@@H](O)[C@H](O)C[C@H](O)C[C@]3(O)CC(O)[C@@H](C(=O)NC4CCCCC4)C(C2)O3)C(O)C(N)C1O (some centres unmarked) [A-2, N-cycloheximide of AmB] | 45 | > 100 | 120 | > 50 | 5 | <1 | <1 | <1 | <1 | <1% | > 100 |
| CC(NC(=O)[C@@H]1C(O)C[C@@]2(O)C[C@@H](O)C[C@@H](O)[C@H](O)CC[C@@H](O)C[C@@H](O)CC(=O)OC(C)C(C)[C@H](O)C(C)/C=C/C=C/C=C/C=C/C=C/C=C/C=C/[C@H](OC3OC(C)C(O)C(N)C3O)CC1O2)c1ccccc1 (stereo partly drawn) [A-4, N—(S)-α-phenylethylamide of AmB] | 46 | > 100 | 80 | > 50 | 7 | 3 | 1 | <1 | <1 | <1% | > 100 |
| CC1OC(O[C@H]2/C=C/C=C/C=C/C=C/C=C/C=C/C=C/C(C)[C@@H](O)C(C)C(C)OC(=O)C[C@H](O)C[C@H](O)CC[C@@H](O)[C@H](O)C[C@H](O)C[C@]3(O)CC(O)[C@@H](C(=O)N[C@H](C)c4ccccc4)C(C2)O3)C(O)C(N)C1O (stereo partly drawn) [A-5, N—(R)-α-phenylethylamide of AmB] | 42 | > 100 | 100 | > 50 | 10 | 2 | <1 | <1 | <1 | <1% | > 100 |
| COC(=O)C(Cc1c[nH]c2ccccc12)NC(=O)[C@@H]1C(O)C[C@@]2(O)C[C@@H](O)C[C@@H](O)[C@H](O)CC[C@@H](O)C[C@@H](O)CC(=O)OC(C)C(C)[C@H](O)C(C)/C=C/C=C/C=C/C=C/C=C/C=C/C=C/[C@H](OC3OC(C)C(O)C(N)C3O)CC1O2 (some centres unmarked) [A-6, N-(L)-tryptophanamide of AmB] | 58 | > 100 | 120 | > 50 | 23 | 2 | <1 | <1 | <1 | N.O. | > 100 |
| CC1/C=C/C=C/C=C/C=C/C=C/C=C/C=C/[C@H](OC2O[C@H](O)[C@@H](O)[C@H](N)[C@@H]2O)C[C@@H]2O[C@](O)(C[C@@H](O)C[C@@H](O)[C@H](O)CC[C@@H](O)C[C@@H](O)CC(=O)O[C@@H](C)[C@H](C)[C@@H]1O)C[C@H](O)[C@H]2C(=O)NCCc1c[nH]cn1 (some centres unmarked) [A-8, N-histaminamide of AmB] | – | > 100 | – | > 50 | – | – | – | – | – | – | > 100 |
